Publication doi:10.1101/2023.11.24.568596v1 (biorxiv, 2023)

Key:
Details in all cases: binder
NEK1 = target: T1, NEK1 (Homo sapiens, UniProt Q96PY6)
T1 sequence (Q96PY6 1-1258): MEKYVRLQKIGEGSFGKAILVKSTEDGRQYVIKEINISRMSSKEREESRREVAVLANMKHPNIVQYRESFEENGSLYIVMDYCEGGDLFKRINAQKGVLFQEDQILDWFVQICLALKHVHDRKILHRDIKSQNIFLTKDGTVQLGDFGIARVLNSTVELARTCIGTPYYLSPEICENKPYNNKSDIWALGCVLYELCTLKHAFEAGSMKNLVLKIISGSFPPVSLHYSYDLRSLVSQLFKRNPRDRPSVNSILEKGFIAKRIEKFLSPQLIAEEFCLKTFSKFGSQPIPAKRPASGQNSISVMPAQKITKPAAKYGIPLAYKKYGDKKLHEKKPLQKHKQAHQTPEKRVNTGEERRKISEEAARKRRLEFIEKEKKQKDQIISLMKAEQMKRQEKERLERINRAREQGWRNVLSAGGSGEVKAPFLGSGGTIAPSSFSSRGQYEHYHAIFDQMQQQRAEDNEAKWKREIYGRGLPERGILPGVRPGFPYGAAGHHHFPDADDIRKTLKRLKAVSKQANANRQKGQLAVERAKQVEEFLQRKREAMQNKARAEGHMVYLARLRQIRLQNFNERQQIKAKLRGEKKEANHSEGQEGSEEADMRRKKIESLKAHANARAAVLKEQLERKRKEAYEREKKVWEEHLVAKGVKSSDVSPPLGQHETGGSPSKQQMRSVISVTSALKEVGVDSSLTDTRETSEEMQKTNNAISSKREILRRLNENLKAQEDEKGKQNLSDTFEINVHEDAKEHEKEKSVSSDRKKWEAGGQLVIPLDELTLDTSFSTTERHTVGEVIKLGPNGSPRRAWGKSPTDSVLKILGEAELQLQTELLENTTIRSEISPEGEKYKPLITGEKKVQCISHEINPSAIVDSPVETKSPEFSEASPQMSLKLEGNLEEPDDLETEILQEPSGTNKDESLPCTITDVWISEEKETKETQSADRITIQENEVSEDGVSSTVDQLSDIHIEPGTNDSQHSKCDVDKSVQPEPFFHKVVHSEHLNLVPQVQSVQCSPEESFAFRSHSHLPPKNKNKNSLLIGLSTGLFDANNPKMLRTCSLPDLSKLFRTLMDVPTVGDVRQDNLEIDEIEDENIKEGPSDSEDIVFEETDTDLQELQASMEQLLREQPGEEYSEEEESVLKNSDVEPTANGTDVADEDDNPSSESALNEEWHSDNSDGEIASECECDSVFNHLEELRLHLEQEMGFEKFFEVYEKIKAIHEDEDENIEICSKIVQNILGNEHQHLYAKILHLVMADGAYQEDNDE

CK1d = CK1d (Homo sapiens, UniProt P48730)
PLK4 = target: T2, PLK4 (Homo sapiens, UniProt O00444)
T2 sequence (O00444 1-970): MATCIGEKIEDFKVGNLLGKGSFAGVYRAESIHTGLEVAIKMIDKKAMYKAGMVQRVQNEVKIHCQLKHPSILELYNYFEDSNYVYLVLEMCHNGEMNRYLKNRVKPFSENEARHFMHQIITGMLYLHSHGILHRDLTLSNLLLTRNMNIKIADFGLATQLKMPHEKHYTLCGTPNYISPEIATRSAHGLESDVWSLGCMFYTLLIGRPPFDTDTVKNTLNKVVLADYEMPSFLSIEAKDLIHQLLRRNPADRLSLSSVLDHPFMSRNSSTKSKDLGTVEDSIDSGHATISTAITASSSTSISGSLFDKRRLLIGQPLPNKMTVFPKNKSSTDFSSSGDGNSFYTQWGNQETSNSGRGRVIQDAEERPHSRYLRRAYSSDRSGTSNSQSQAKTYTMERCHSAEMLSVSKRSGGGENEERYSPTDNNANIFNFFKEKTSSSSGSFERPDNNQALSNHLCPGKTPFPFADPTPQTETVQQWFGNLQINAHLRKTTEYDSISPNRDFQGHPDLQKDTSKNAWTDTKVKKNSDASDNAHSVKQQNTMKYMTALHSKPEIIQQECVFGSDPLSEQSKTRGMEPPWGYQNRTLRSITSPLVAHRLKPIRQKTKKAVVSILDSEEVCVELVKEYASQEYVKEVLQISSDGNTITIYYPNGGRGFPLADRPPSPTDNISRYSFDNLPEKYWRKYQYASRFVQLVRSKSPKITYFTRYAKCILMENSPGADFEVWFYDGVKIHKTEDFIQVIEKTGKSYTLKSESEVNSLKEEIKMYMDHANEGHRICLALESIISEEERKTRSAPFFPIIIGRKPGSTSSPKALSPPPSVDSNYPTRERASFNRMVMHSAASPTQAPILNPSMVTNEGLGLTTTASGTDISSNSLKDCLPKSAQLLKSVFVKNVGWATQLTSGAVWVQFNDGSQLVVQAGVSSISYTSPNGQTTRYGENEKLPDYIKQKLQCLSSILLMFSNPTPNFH

CK1d, sequence (P48730 whole entry): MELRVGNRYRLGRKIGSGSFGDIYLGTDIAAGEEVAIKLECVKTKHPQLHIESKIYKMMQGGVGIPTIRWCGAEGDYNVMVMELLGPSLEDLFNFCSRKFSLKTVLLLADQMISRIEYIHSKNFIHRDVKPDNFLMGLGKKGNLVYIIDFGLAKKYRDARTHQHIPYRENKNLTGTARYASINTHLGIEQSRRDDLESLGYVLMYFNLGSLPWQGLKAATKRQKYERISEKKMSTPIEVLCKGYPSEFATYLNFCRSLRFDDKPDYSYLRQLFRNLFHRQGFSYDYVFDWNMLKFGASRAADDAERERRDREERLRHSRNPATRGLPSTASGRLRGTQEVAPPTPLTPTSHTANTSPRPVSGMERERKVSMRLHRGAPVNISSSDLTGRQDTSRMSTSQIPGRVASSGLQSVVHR

Cc1cccc(-c2ccc(-c3cc4cnc(NCCCN5CCCC5=O)nc4n(CCCCN)c3=O)c(Cl)c2)n1 [compound 27, MR30]
ΔTm MR30 (27) (NEK1): -0.3 °C | ΔTm MR30 (27) (CK1d): 1.6 °C | ΔTm MR30 (27) (PLK4): 4.5 °C

Cc1cccc(-c2ccc(-c3cc4cnc(Nc5cc(C(F)(F)F)ccc5C)nc4n(CCCCN)c3=O)c(Cl)c2)n1 [compound 28, 8-(4-Aminobutyl)-6-(2-chloro-4-(6-methylpyridin-2-yl)phenyl)-2-((2-methyl-5-(trifluoromethyl)phenyl)amino)pyrido[2,3-d]pyrimidin-7(8H)-one]
ΔTm 28 (NEK1): 0.2 °C | ΔTm 28 (CK1d): 1.4 °C | ΔTm 28 (PLK4): 8.0 °C

Cc1cccc(-c2ccc(-c3cc4cnc(NCCCN5CCNCC5)nc4n(CCCCN)c3=O)c(Cl)c2)n1 [compound 29, 8-(4-Aminobutyl)-6-(2-chloro-4-(6-methylpyridin-2-yl)phenyl)-2-((3-(piperazin-1-yl)propyl)amino)pyrido[2,3-d]pyrimidin-7(8H)-one]
ΔTm 29 (NEK1): 0.3 °C | ΔTm 29 (CK1d): 1.3 °C | ΔTm 29 (PLK4): 4.2 °C

Cc1cccc(-c2ccc(-c3cc4cnc(Nc5ccc(CCCO)cc5)nc4n(CCCCN)c3=O)c(Cl)c2)n1 [compound 30, 8-(4-Aminobutyl)-6-(2-chloro-4-(6-methylpyridin-2-yl)phenyl)-2-((4-(3-hydroxypropyl)phenyl)amino)pyrido[2,3-d]pyrimidin-7(8H)-one]
ΔTm 30 (NEK1): -3.1 °C | ΔTm 30 (CK1d): 2.8 °C | ΔTm 30 (PLK4): 12.6 °C

Cc1cccc(-c2ccc(-c3cc4cnc(Nc5ccc(O)cc5)nc4n(CCCCN)c3=O)c(Cl)c2)n1 [compound 31, 8-(4-Aminobutyl)-6-(2-chloro-4-(6-methylpyridin-2-yl)phenyl)-2-((4-hydroxyphenyl)amino) pyrido[2,3-d]pyrimidin-7(8H)-one]
ΔTm 31 (NEK1): -3.3 °C | ΔTm 31 (CK1d): 2.8 °C | ΔTm 31 (PLK4): 12.2 °C

Cc1cccc(-c2ccc(-c3cc4cnc(Nc5ccc(C)c(O)c5)nc4n(CCCCN)c3=O)c(Cl)c2)n1 [compound 32, 8-(4-Aminobutyl)-6-(2-chloro-4-(6-methylpyridin-2-yl)phenyl)-2-((3-hydroxy-4-methylphenyl)amino)pyrido[2,3-d]pyrimidin-7(8H)-one]
ΔTm 32 (NEK1): -3.0 °C | ΔTm 32 (CK1d): 2.3 °C | ΔTm 32 (PLK4): 11.5 °C
